From patent publication USRE38425E1, “Semicarbazones having CNS activity and pharmaceutical preparations containing same” (University of Saskatchewan Technologies, Inc., priority 1995, dated 2004)

Columns and labels:
mice [1] = assay: MES screen after intraperitoneal injection in mice; format: in vivo; settings: intraperitoneal injection in mice; time t (h) per compound as in the table
mice [2] = settings: intraperitoneal injection in mice; time t (h) per compound as in the table
Description: An initial anticonvulsant evaluation of the compounds prepared according to Example 1 was undertaken by administering the compounds by the intraperitoneal route to mice. Protection and/or neurotoxicity was noted 0.5 and 4 hours after administering doses of 30, 100 and 300 mg/kg of each semicarbazone to the animals.
Doses of 30, 100 and 300 mg/kg were injected by the intraperitoneal route into mice and evaluated in the MES, scPTZ and neurotoxicity screens one half and four hours after administration.

mice [3] = settings: for neurotoxicity screen TD50: intraperitoneal injection in mice, time t (h) per compound as in the table
rats [4] = assay: MES screen after oral administration to rats; settings: oral administration to rats; for MES screen ED50: time t (h) per compound as in the table
rats [5] = assay: neurotoxicity screen after oral administration to rats; settings: oral administration to rats; time t (h) per compound as in the table

Structure (SMILES)	MES screen ED50 (mice [1]) [mg/kg]	acPTZ screen ED50 (mice [2]) [mg/kg]	neurotoxicity screen TD50 (mice [3]) [mg/kg]	MES screen ED50 (rats [4]) [mg/kg]	MES screen: number of rats out of 4 which were protected (rats [4]; dose 30 mg/kg, 0.25 h)	MES screen: number of rats out of 4 which were protected (rats [4]; dose 30 mg/kg, 0.5 h)	MES screen: number of rats out of 4 which were protected (rats [4]; dose 30 mg/kg, 1 h)	MES screen: number of rats out of 4 which were protected (rats [4]; dose 30 mg/kg, 2 h)	MES screen: number of rats out of 4 which were protected (rats [4]; dose 30 mg/kg, 4 h)	MES screen: number of rats out of 4 which were protected (rats [4]; dose 12.5 mg/kg, 0.5 h)	MES screen: number of rats out of 4 which were protected (rats [4]; dose 12.5 mg/kg, 1 h)	MES screen: number of rats out of 4 which were protected (rats [4]; dose 12.5 mg/kg, 2 h)	MES screen: number of rats out of 4 which were protected (rats [4]; dose 12.5 mg/kg, 4 h)	further results
CC(C)(C)CC(C)(C)c1ccc(Oc2ccc(C=NNC(N)=O)cc2)cc1 [Compound 5t]	11.27	>200	124.53											
CCCCOc1ccc(Oc2ccc(C=NNC(N)=O)cc2)cc1 [Compound 5u]				45.81										MES screen 4 h: number of rats out of 4 which were protected (rats [4]; dose 12.5 mg/kg, 4 h): 2
CCCCCCCOc1ccc(Oc2ccc(C=NNC(N)=O)cc2)cc1 [Compound 5v]														toxicity screen 4 h: minimum dose whereby bioactivity was demonstrated in half or more of the mice (mice [3]; mouse, in vivo): −
CC(=NNC(N)=O)c1ccc(Oc2ccccc2)cc1 [Compound 13a]	9.08	43.31	73.48	9.73	4	4	4	4	4					
CC(=NNC(N)=O)c1ccc(Oc2ccc(Cl)cc2)cc1 [Compound 13c]				2.92	3	4	4	4	4					neurotoxicity screen TD50 (rats [5]): <500 mg/kg
CC(=NNC(N)=O)c1ccc(Oc2ccc(Br)cc2)cc1 [Compound 13d]				1.52						3	4	4	4	MES screen: number of rats out of 4 which were protected (rats [4]; dose 12.5 mg/kg, 0.25 h): 1; neurotoxicity screen TD50 (rats [5]): >500 mg/kg
CCC(=NNC(N)=O)c1ccc(Oc2ccccc2)cc1 [Compound 13e]				23.08	1	4	3	3						
CCC(=NNC(N)=O)c1ccc(Oc2ccc(F)cc2)cc1 [Compound 13f]	5.46	12.84	35.26	4.25						2	4	4	4	
CCC(=NNC(N)=O)c1ccc(Oc2ccc(Cl)cc2)cc1 [Compound 13g]	11.09		<100	2.89		1	4	4	4					neurotoxicity screen TD50 (rats [5]): >500 mg/kg
CCC(=NNC(N)=O)c1ccc(Oc2ccc(Br)cc2)cc1 [Compound 13h]				4.39						2	4	4	4	
CC(=NNC(N)=O)c1ccccc1Oc1ccc(F)cc1 [Compound 14b]				43.37	1	1	3	3	2					
NC(=O)NN=Cc1ccc(OS(=O)(=O)c2ccccc2)cc1 [Compound 15f]	25.27	>100	113.00							2	2	4	3	MES screen: number of rats out of 4 which were protected (rats [4]; dose 12.5 mg/kg, 0.25 h): 1
